Results filed as inconclusive are left out. Active and inactive are the calls of the source. The rule behind the calls is not given here.
System: Mycobacterium tuberculosis non-replicating, growth inhibition
Test: growth inhibition of non-replicating M. tuberculosis (AID 488890)

Compound | IC50
Cc1ccc(NC(=O)COC(=O)C(NS(=O)(=O)c2ccc(Cl)cc2)C(C)O)cc1C (stereo unspecified) | 22.1 µM (inactive)
CCOc1ccc(Cn2c(=O)oc3ccccc32)cc1 | 0.83 µM
NCCNc1ccc([N+](=O)[O-])c2cccnc12 | 4.89 µM
Sc1oc(-c2ccccc2)cc1C=Nc1ccccc1 | 26 µM (inactive)
O=C(Oc1cccc2cccnc12)c1ccc2c(c1)OCCO2 | 0.96 µM
Cc1ccn2c(NC3CCCC3)c(-c3ccccn3)nc2c1 | 12 µM (inactive)
CC(C)(C)OC(=O)NNc1c2ccccc2nc2ccccc12 | 4.09 µM
Cc1nnsc1C(=O)N/N=C/c1ccc2ccccc2c1O | 0.48 µM
COc1cccc(COC(=O)CCNC(=O)c2ccc(Cl)cc2)c1OC | 11.8 µM (inactive)
CN(/N=C/c1ccc([N+](=O)[O-])o1)c1ccccc1 | 13.4 µM (inactive)
CS(=O)(=O)Nc1cccc2cccnc12 | 21.4 µM (inactive)
COc1ccc(OC(=O)c2cc3cc(Cl)ccc3oc2=O)cc1 | 10.1 µM (inactive)
Cc1ccc(NC(=S)C2=C(O)c3sccc3N(C)S2(=O)=O)cc1 | 22.3 µM (inactive)
CC(C)N1C(=O)NC(=O)C2(Cc3cc([N+](=O)[O-])ccc3N(C)C2c2ccccc2)C1=O (stereo unspecified) | 14.7 µM (inactive)
Oc1c(Br)cc(Br)cc1/C=N/c1nccs1 | 21.2 µM (inactive)
COC(=O)c1ccc2c(c1O)C(=O)c1ccccc1C2=O | 1.44 µM
c1ccc(-c2nc3c(ccc4ccccc43)[nH]2)nc1 | 17.8 µM (inactive)
CC(OC(=O)c1ccc2c(=O)n3c(nc2c1)CCCCC3)C(=O)Nc1ccc(Cl)cn1 (stereo unspecified) | 3.69 µM
CC(C)(C)OC(=O)N/N=C\c1ccc([N+](=O)[O-])s1 | 13.6 µM (inactive)
Cc1ccc(Oc2c(C(N)=O)cc([N+](=O)[O-])cc2[N+](=O)[O-])cc1 | 2.2 µM
CC1CCN(C(=O)C2COc3ccccc3O2)CC1 (stereo unspecified) | 0.23 µM
CCC1CCc2sc(C(=O)NCC3CCCO3)cc2C1 (stereo unspecified) | 1.44 µM
Cc1cc(C)n(-c2ccc3cccc(NS(C)(=O)=O)c3n2)n1 | 4.85 µM

Compound | IC50
O=C(OCC#CCSc1nnc(-c2ccncc2)o1)c1cccs1 | 4.13 µM
COC(=O)c1ccc(CO/N=C/c2ccc(OC)cc2)o1 | 6.95 µM
COC(=O)COc1ccc(S(=O)(=O)NCc2ccc3c(c2)OCO3)cc1 | 14.3 µM (inactive)
C/C(=N\NC(=O)C(C)Oc1ccc([N+](=O)[O-])cc1)c1ccccn1 (stereo unspecified) | 9.84 µM
O=C(c1ccc(Cl)cc1)c1nnc(-c2ccncc2)o1 | 3.32 µM
COc1ccc(C(C)=O)cc1COC(=O)c1ccc2ccccc2n1 | 4.38 µM
O=C(COc1ccccc1)Nc1nnc(-c2ccc(Cl)cc2)o1 | 21.9 µM (inactive)
O=C(Nc1cccc(S(=O)(=O)N2CCCCC2)c1)c1ccc([N+](=O)[O-])o1 | 4.07 µM
CS/C(Nc1cc(Cl)ccc1Cl)=C(/C#N)C(=O)c1ccco1 | 1.5 µM
COc1cc(OC)cc(C(=O)NNC(=O)c2ccccn2)c1 | 11.6 µM (inactive)
O=C(CCC1CCCCC1)NCc1cccs1 | 0.27 µM
O=C1c2cc([N+](=O)[O-])cc3cc([N+](=O)[O-])cc(c23)C(=O)N1c1ccccn1 | 3.46 µM
S=C1CN=C(c2ccccc2)c2cc(Cl)ccc2N1 | 8.42 µM
CN(Cc1ccccc1)C(=O)c1ccc([N+](=O)[O-])o1 | 3.29 µM
CCCCNS(=O)(=O)c1ccc(OCC(=O)OC)cc1 | 15.6 µM (inactive)
CCCn1c(NC(=O)c2ccc([N+](=O)[O-])o2)nc2ccccc21 | 7.64 µM
C=CCn1c(NC(=O)c2ccccc2)nc2ccccc21 | 21.6 µM (inactive)
O=C(Nc1ccccc1)c1nnsc1S(=O)c1ccc(Cl)cc1 (stereo unspecified) | 0.34 µM
COc1cc(/C=N/N(C)C)ccc1OC(=O)c1cccs1 | 8.4 µM
COC(=O)COc1ccc2c(-c3cccc([N+](=O)[O-])c3)cc(=O)oc2c1 | 1.84 µM
CSC1=N/C(=C\c2ccc3c(c2)OCO3)C(=O)S1 | 4.95 µM
Cc1cc(NC(=O)COc2ccccc2)ccc1Cl | 5.43 µM
Cc1ccc(CNCc2cc(Cl)ccc2O)cc1 | 12.8 µM (inactive)

From PubChem BioAssay AID488890 (Southern Research Specialized Biocontainment Screening …, 2010)
